IC50 and inhibition data for 21 molecules are collected here from ChEMBL document CHEMBL5385901, “Drug repurposing of propafenone to discover novel anti-tumor agents by impairing homologous recombination to delay DNA damage recovery of rare disease conjunctival melanoma” (Eur J Med Chem, 2023).

The term IC50 denotes the concentration needed to halve the response being measured. Broadly, the inhibition is the relative decrease from the control value, in per cent.

A short description of series [1]: Antiproliferative activity against human PIG1 cells assessed as cell growth inhibition incubated for 72 hrs by CCK8 assay. It counts as toxicity, cell-based. (Formazan colour is commonly taken as a measure of viable cells.)
The test system of series [2] is CRMM-1. Description: Antiproliferative activity against human CRMM-1 cells assessed as cell growth inhibition incubated for 72 hrs by CCK8 assay. It counts as functional, cell-based. The conditions noted are these: CRMM-1, 72 h.
A short description of series [3]: Antiproliferative activity against human CM2005.1 cells assessed as cell growth inhibition incubated for 72 hrs by CCK8 assay. It counts as functional, cell-based. The conditions noted are these: CM2005.1, 72 h.
Series [4] deals with CRMM-1. Description: Inhibition of homologous recombination in human CRMM-1 cells at 10 uM incubated for 12 hrs by real-time PCR analysis. It counts as functional, cell-based.
Series [5] in a line: Antiproliferative activity against human HL7702 cells assessed as cell growth inhibition incubated for 72 hrs by CCK8 assay. Type of series: toxicity, cell-based. Conditions: HL7702 (L02) cells.
Series [6] in a line: Antiproliferative activity against human CM-AS16 cells assessed as cell growth inhibition incubated for 72 hrs by CCK8 assay. It counts as functional, cell-based. The conditions noted are these: CM-AS16, 72 h.
The subject of series [7] is CRMM-2. As to the kind of experiment: Antiproliferative activity against human CRMM-2 cells assessed as cell growth inhibition incubated for 72 hrs by CCK8 assay. It counts as functional, cell-based. Conditions: CRMM-2, 72 h.
The nature of series [8]: Inhibition of homologous recombination in human CRMM-1 cells at 10 uM incubated for 12 hrs by real-time PCR analysis relative to control. It counts as functional. For orientation: Real-time PCR tracks product formation cycle by cycle.

Structures are written as SMILES. Activity calls are given as the source filed them. The rule behind the calls is not given here.

With `CCCNCCCOc1cc2c(cc1C(=O)CCCc1ccccc1)OCCO2`, the results for the IC50 at 72 h in series [1] and in series [5] were 15.4 µM and 27.7 µM, respectively. For the same molecule, the IC50 stood at 5.5 µM in series [2], 11.6 µM in series [3], 4.4 µM in series [6] and 8.8 µM in series [7]. For the same molecule, the inhibition result in series [4] is “inactive”.

For the molecule `C=C(CCc1ccccc1)c1ccccc1OCC(O)CNCCC` (stereo unspecified), the values for the IC50 at 72 h in series [1] and in series [5] were 16.1 µM and 14.8 µM, respectively. The half-inhibitory concentration (IC50) amounted to 6.3 µM in series [2], 9.1 µM in series [3], 4 µM in series [6] and 9.5 µM in series [7]. Besides, the inhibition entry in series [4] is “inactive”.

For the molecule `O=C(CCCc1ccccc1)c1c(OCc2cccnc2)ccc2ccccc12`, the IC50 at 72 h in series [1] was 24.9 µM; in series [5], 64.9 µM. Moreover, the figures for the 50% inhibitory concentration (IC50) in series [2], in series [3] and in series [7] were 16 µM, 58.1 µM and 48.5 µM, respectively. Moreover, the inhibition entry in series [4] was “inactive”.

For the molecule `CCCN1CC(COc2ccccc2C(=O)CCc2ccccc2)OC1=O` (stereo unspecified), in series [4], the inhibition result was “inactive”. Also, in series [6], the IC50 was above 100 µM.

As for `CC(C)(C)CNCCCOc1ccc2ccccc2c1C(=O)CCCc1ccccc1`, the results for the half-inhibitory concentration (IC50) at 72 h in series [1] and in series [5] were 4 µM and 11.1 µM, respectively. The half-inhibitory concentration (IC50) is 8.7 µM in series [2], 5.1 µM in series [3], 5 µM in series [6] and 5.1 µM in series [7]. For the same molecule, in series [8], the inhibition at 10 µM was 52.4%.

Take `CCCNCC(O)COc1ccccc1C(O)CCc1ccccc1` (stereo unspecified): the results for the 50% inhibitory concentration (IC50) at 72 h in series [1] and in series [5] were 89.6 µM and 71.5 µM, respectively. The half-inhibitory concentration (IC50) worked out at 55.4 µM in series [2], 73.3 µM in series [3], 18.7 µM in series [6] and 14.9 µM in series [7]. The inhibition at 10 µM in series [8] amounted to 15.7%.

In the case of `CCCNCCCOc1ccccc1C(=O)CCc1ccccc1`, the results for the IC50 at 72 h in series [1] and in series [5] were 66.4 µM and 64.8 µM, respectively. In addition, the half-maximal inhibitory concentration (IC50) in series [2] amounted to 54.5 µM; in series [3], 68.5 µM; in series [6], 10 µM; in series [7], 35.9 µM. Besides, the inhibition at 10 µM in series [8] stood at 65%.

With `O=C(CCCc1ccccc1)c1c(OCCCN2CCSC2)ccc2ccccc12`, the half-maximal inhibitory concentration (IC50) at 72 h in series [1] was 29.7 µM; in series [5] it was 51.5 µM. Besides, the half-maximal inhibitory concentration (IC50) is 10.2 µM in series [2], 11.9 µM in series [3], 9.2 µM in series [6] and 6.6 µM in series [7]. Moreover, the inhibition at 10 µM in series [8] worked out at 72.1%.

Take `CCCN(C)CC(O)COc1ccccc1C(=O)CCc1ccccc1` (stereo unspecified): the IC50 at 72 h in series [1] was found to be 71.9 µM; in series [5], 97.2 µM. In addition, the 50% inhibitory concentration (IC50) was determined as 48.7 µM in series [2], 61.2 µM in series [3], 22.6 µM in series [6] and 14.6 µM in series [7]. In series [8], the inhibition at 10 µM came out at 30.3%.

As to `CCC(=O)NCCCOc1ccc2ccccc2c1C(=O)CCCc1ccccc1`, the values for the IC50 at 72 h in series [1] and in series [5] were 19.5 µM and 29.5 µM, respectively. In addition, the IC50 in series [2] came to 8.2 µM; in series [3], 37.7 µM; in series [6], 9 µM; in series [7], 9.3 µM. Further, the inhibition at 10 µM in series [8] turned out to be 35%.

Take `CCCNCC(O)COc1ccc(C(=O)CCc2ccccc2)cc1` (stereo unspecified): the half-maximal inhibitory concentration (IC50) at 72 h in series [1] amounted to 26.8 µM; in series [5], 44 µM. Also, the concentration for half-maximal inhibition (IC50) in series [2] worked out at 28.5 µM; in series [3] it was 56.2 µM; in series [6] it was 18.9 µM; in series [7] it was 21 µM. In addition, the inhibition at 10 µM in series [8] was 5.5%.

Consider `CN1CCN(CCCOc2ccc3ccccc3c2C(=O)CCCc2ccccc2)CC1`, for which the half-inhibitory concentration (IC50) at 72 h is 10.4 µM in series [1] and 10.5 µM in series [5]. Moreover, the 50% inhibitory concentration (IC50) was 5.6 µM in series [2], 5.9 µM in series [3], 5.2 µM in series [6] and 4.2 µM in series [7]. For the same molecule, in series [8], the inhibition at 10 µM is 54.2%.

As for `CCCNCCCOc1cc2ccccc2cc1C(=O)CCCc1ccccc1`, the 50% inhibitory concentration (IC50) at 72 h in series [1] came to 13.6 µM; in series [5], 11.9 µM. The 50% inhibitory concentration (IC50) in series [2] was 10.4 µM; in series [3], 6.6 µM; in series [6] it was 6.8 µM; in series [7], 6.7 µM. For the same molecule, the inhibition at 10 µM in series [8] was determined as 67.1%.

`CCCOCC(O)COc1ccccc1C(=O)CCc1ccccc1` (stereo unspecified): the IC50 at 72 h in series [1] stood at 73.8 µM; in series [5] it was 65 µM. Further, the 50% inhibitory concentration (IC50) in series [2] amounted to 20.9 µM; in series [3], 53 µM; in series [6], 13.7 µM; in series [7], 28.9 µM. In addition, the inhibition at 10 µM in series [8] came out at 20.1%.

Consider `CCCOCC(=O)COc1ccccc1C(=O)CCc1ccccc1`, for which the IC50 at 72 h in series [1] worked out at 56.7 µM; in series [5] it was 73.1 µM. For the same molecule, the concentration for half-maximal inhibition (IC50) in series [2] worked out at 41.8 µM; in series [3], 40.9 µM; in series [6], 36.8 µM; in series [7], 28.7 µM. The inhibition at 10 µM in series [8] was 20.6%.

With `CCCNCCCOc1cc2c(cc1C(=O)CCCc1ccccc1)OCO2`, the concentration for half-maximal inhibition (IC50) at 72 h was 15.5 µM in series [1] and 32.7 µM in series [5]. The concentration for half-maximal inhibition (IC50) in series [2] is 6.9 µM; in series [3], 6.8 µM; in series [6] it was 10.8 µM; in series [7] it was 8.2 µM. In addition, the inhibition at 10 µM in series [8] stood at 43%.

For `CCC(C)(C)NCCCOc1ccc2ccccc2c1C(=O)CCCc1ccccc1`, the half-inhibitory concentration (IC50) at 72 h in series [1] was found to be 5.7 µM; in series [5], 10.4 µM. Moreover, the concentration for half-maximal inhibition (IC50) in series [2] is 4.8 µM; in series [3] it was 4.1 µM; in series [6], 3.1 µM; in series [7], 3.7 µM. Further, the inhibition at 10 µM in series [8] was 44.6%.

Turning to `CCCCCNCCCOc1ccccc1C(=O)CCCc1ccccc1`, the IC50 at 72 h is 1.9 µM in series [1] and 2.4 µM in series [5]. The 50% inhibitory concentration (IC50) in series [2] is 2.3 µM; in series [3], 3.8 µM; in series [6] it was 5.5 µM; in series [7], 1.3 µM. Moreover, the inhibition entry in series [4] was “inactive”.

Consider `O=C(CC(F)(F)F)NCCCOc1ccc2ccccc2c1C(=O)CCCc1ccccc1`, for which the concentration for half-maximal inhibition (IC50) at 72 h was 18.5 µM in series [1] and 29.9 µM in series [5]. Besides, the IC50 in series [2] came out at 9.8 µM; in series [3], 19.4 µM; in series [6], 21.4 µM; in series [7], 42.2 µM. The inhibition at 10 µM in series [8] was determined as 40.1%.

In the case of `O=C(CCCc1ccccc1)c1c(OCCCNC2CC2)ccc2ccccc12`, the IC50 at 72 h in series [1] came out at 8 µM; in series [5], 32.4 µM. In addition, the half-maximal inhibitory concentration (IC50) in series [2] is 10.3 µM; in series [3], 10.4 µM; in series [6], 14.2 µM; in series [7], 16.4 µM. Further, in series [8], the inhibition at 10 µM worked out at 29.3%.

Consider `CCCCCCNCCCOc1ccccc1C(=O)CCCc1ccccc1`, for which the concentration for half-maximal inhibition (IC50) at 72 h in series [1] amounted to 9.2 µM; in series [5], 10.6 µM. In addition, the IC50 in series [2] was found to be 6.5 µM; in series [3], 15.8 µM; in series [6], 5.9 µM; in series [7], 1.6 µM. The inhibition at 10 µM in series [8] is 57.2%.
